Entries after “also recorded” stand apart in the source; their conditions may differ.
Legend:
mice [1] = assay: Forced swim test (FST); type: in vivo; conditions: 7.5 mg/kg i.p., 60 min before test
Experimental: (§1) The investigated compound (SER2AAK2) was bought from Enamine (purity over 95%) and in all tests was administered intraperitoneally (i.p.), spread in a drop of Tween 80, and diluted with an aqueous solution of 0.5% methylcellulose (tylose) and injected 60 min before the tests in a volume of 10 mL/kg. Control groups received tylose injections of the same volume and via the same route of administration.
The study was carried out using the test proposed by R. Porsolt. The method is based on the observation of an animal forced to swim in a confined space from which there is no escape. After an initial period of vigorous attempts to get out, the animal finally gives up on escaping. The test consists of immersing the mouse individually in a cylindrical beaker (diameter 10 cm, height 25 cm) filled with water (at a temperature of 23–25 °C) at a height of 10 cm for 6 min. The immobility time was measured during the final 4 min of the test (between 2 and 6 min).

CYP2D6 = CYP2D6 (Homo sapiens, UniProt P10635); assay: CYP2D6 luminescent assay (Glo kit)
Experimental: The inhibitory potential of the compound against the CYP2D6 isoform was evaluated employing a methodology analogous to the CYP3A4 assay, albeit with a different set of reference compounds.
(§2) The effect of SERAAK2 on the activity of the cytochrome P450 isoforms CYP3A4 and CYP2D6 was tested using commercial luminescence assays (Glo kits bought from Promega, Medison, WI, USA). The experiment was performed twice with triplicate samples, following the manufacturer’s guidelines and established procedures.

mice [2] = assay: Motor coordination, rotarod test; type: in vivo; conditions: for Motor coordination (rotarod, chimney): rotarod and chimney
Experimental: as §1
The effects of the SER2AAK2 compound were also measured in the rotarod and chimney tests. In the rotarod test, mice were evaluated for their ability to maintain balance on a constantly rotating rod (18 rpm) for 1 min. The chimney test involved placing a mouse in a horizontal polymer tube (3 cm diameter, 25 cm length). Once the mouse reached the far end, the tube was positioned vertically, requiring the animal to climb backwards to exit. Right motor coordination was defined as exiting the chimney within 60 s. Prior to testing, mice underwent a 3-day training. Only those animals that were able to stay on the rotating rod or leave the chimney within the required time were included in the study.

5-HT1A receptor = target: 5-HT1A receptor; parameters: method as in PMID 38619283; conditions: cited from earlier work
[3] = target: serotonin 5-HT2A receptor; parameters: method as in PMID 38619283; conditions: cited from earlier work
[4] = PAMPA membrane permeability; type: in vitro ADME; conditions: 100 µM in PBS pH 7.4, 5 h
Experimental: In this study, PAMPA was employed to evaluate the passive diffusion of SERAAK2 through a lipid-infused artificial membrane.
The membrane permeability assay was conducted employing the pre-coated PAMPA Plate System Gentest from Corning (Tewksbury, MA, USA), following the manufacturer’s provided instructions. SERAAK2, along with reference compounds, were prepared in PBS buffer at a pH of 7.4 to reach a final concentration of 100 µM, and these solutions were loaded onto the donor plate of the 96-well system. […] The permeability coefficient (Pe, expressed in cm/s) was subsequently derived by applying the calculation formula supplied by the manufacturer of the PAMPA system.

dopamine D2 receptor = tested on: dopamine D2 receptor; parameters: method as in PMID 38619283; conditions: cited from earlier work
CYP3A4 = target: T1, CYP3A4 (Homo sapiens, UniProt P08684); assay: CYP3A4 luminescent luciferase-based assay (Glo kit); type: in vitro ADME; conditions: mean ± SEM, two experiments, n = 3 each, read-out: CYP3A4 Activity Inhibition, Evaluated at the Concentration of 10 µM [% of Inhibition ± SEM]
T1 construct: purchased Promega
Experimental: as §2

HepG2 cells = assay: MTS cytotoxicity assay in HepG2 cells; type: cell-based, human; conditions: 72 h
Experimental: The cytotoxic potential of SERAAK2 was evaluated in two human-derived cell lines chosen for their physiological relevance: HepG2 (hepatocellular carcinoma) and SH-SY5Y (neuroblastoma). […] It is particularly noteworthy that the use of the SERAAK2 compound at a concentration of 30 µM reduces the number of viable cells below the level of the positive control (doxorubicin) at the same concentration (Table 3). […] Under the experimental conditions used, after 72 h of incubation, a fraction of doxorubicin-treated cells remains metabolically active and generates a low signal in the MTS assay. The enhanced signal reduction observed in the MTS assay for the tested compound, compared to doxorubicin, indicates strong cytotoxic activity leading to necrosis of the entire cell population.
An assessment of the cytotoxic potential of SERAAK2 was carried out utilizing the colorimetric MTS assay. This investigation was executed on both HepG2 and SH-SY5Y cell lines, adhering to an identical procedure. The cell lines, sourced from the American Type Culture Collection (Manassas, VA, USA), were cultured under standard conditions (5% CO2, 37 °C) in DMEM/F12 medium (#31330-038, ThermoFisher Scientific, Waltham, MA, USA). The medium was supplemented with 10% Fetal Bovine Serum (FBS, #A5256801, ThermoFisher Scientific) and a Penicillin–Streptomycin solution (#15140-122, ThermoFisher Scientific) until their use in the study. Cells within passage numbers 15 to 25 were plated in 96-well plates at a density of 5000 cells per well in 200 μL of medium and allowed to adhere during a 24 h incubation at 37 °C with 5% CO2. […] The plates were then subsequently returned to the 37 °C incubator, after which absorbance was recorded with a Spark microplate reader; this measurement occurred after 1 h for the HepG2 line and 3 h for the SH-SY5Y line. The ultimate cell viability percentage was determined by comparing results to the control wells, which represented 100% viability, and the wells treated with 10 μM doxorubicin, which were defined as 0% viability. […]

Chain of CYP2D6 (P10635 whole entry, canonical isoform): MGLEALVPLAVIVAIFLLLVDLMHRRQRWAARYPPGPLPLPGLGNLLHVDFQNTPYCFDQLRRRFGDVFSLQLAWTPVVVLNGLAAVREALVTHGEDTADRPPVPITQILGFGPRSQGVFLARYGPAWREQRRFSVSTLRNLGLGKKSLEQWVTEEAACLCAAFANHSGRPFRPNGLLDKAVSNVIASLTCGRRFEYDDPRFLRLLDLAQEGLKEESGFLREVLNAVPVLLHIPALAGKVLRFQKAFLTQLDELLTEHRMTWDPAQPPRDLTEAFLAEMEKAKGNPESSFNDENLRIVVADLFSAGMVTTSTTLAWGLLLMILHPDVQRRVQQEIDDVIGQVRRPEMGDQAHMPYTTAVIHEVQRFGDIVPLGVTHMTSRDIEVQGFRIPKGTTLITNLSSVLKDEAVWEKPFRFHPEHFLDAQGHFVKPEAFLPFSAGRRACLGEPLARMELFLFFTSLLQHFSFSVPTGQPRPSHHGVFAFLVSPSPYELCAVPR
T1 sequence (P08684 whole entry): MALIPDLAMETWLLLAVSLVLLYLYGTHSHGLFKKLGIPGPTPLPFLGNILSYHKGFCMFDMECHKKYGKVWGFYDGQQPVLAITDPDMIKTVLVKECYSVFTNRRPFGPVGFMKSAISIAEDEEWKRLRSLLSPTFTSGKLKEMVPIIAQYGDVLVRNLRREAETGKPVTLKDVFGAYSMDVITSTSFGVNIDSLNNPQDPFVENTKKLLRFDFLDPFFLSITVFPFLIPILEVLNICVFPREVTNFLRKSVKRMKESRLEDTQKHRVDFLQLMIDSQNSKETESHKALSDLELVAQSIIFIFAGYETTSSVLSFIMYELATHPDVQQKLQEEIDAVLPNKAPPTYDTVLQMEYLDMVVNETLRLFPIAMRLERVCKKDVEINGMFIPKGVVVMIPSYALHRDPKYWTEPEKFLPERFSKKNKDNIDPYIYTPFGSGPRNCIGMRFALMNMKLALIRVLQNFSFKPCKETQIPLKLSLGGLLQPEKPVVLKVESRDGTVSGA

- IC50 (CYP2D6): 1000 nM
- inhibition at 10 µM (CYP2D6; human): 90 ± 1%
- Pe ± SD [4]: 1.1 ×10⁻⁶ cm/s
- Papp at 5 h, 100 µM ([4]; read-out: Pe ± SD): 1.1 ± 0.35 ×10⁻⁶ cm/s
- inhibition at 10 µM (CYP3A4): 0%
SMILES: OC(CNCCc1c[nH]c2ccccc12)COc1ccc(Oc2ccccc2)cc1 (stereo not shown) [SERAAK2]
- FST immobility time (mice [1]): significant decrease in immobility time; also recorded: ↓ immobility (7.5 mg/kg) antidepressant-like effect connected with serotonergic modulation
- time held on rotating rod (mice [2]; mice, 7.5 mg/kg i.p., 60 min before test, test length 1 min): about 60 s
- Motor coordination (rotarod, chimney) (mice [2]; mice, 7.5 mg/kg): inactive; also recorded: no effect
- Motor coordination (rotarod, chimney) (mice [2]; mice, 15–60 mg/kg): impairment
- motor coordination in the rotarod test (mice [2]; mice, 60, 30 and 15 mg/kg i.p., 60 min before test): significant disturbances in motor coordination
- Ki (5-HT1A receptor): 153 ± 0.4 nM
- Ki [3]: 422 ± 74 nM
- percent of inhibition at 10 μM, dopamine D2 receptor (dopamine D2 receptor): 23 ± 6%
- cytotoxic effects in HepG2 cells (HepG2 cells; 0.3 µM): no cytotoxic effects
- HepG2 cell viability (HepG2 cells; 3 µM): 85 % of the control
- Percentage Reduction in the Number of Viable HepG2 Cells [Mean ± SEM] (HepG2 cells; 30 µM): 104 ± 1%
